Measured values reported in PubChem BioAssay (NCI).
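Test compounds were applied to cells in 96-well plates for 48 hours at 5 doses. GI50 is the concentration that inhibits growth by half. Definition used: TGI = concentration required for complete inhibition of growth.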

Key:
Assay in all cases: inhibition of tumour cell growth, NCI panel, 48 h
[1] = tested on: NCI-H23 lung
[2] = tested on: SNB-19 CNS
[3] = tested on: CAKI-1 renal
[4] = tested on: MOLT-4 leukemia
[5] = tested on: SF-295 CNS
[6] = tested on: ACHN renal
[7] = tested on: SW-620 colon
[8] = tested on: UO-31 renal
[9] = tested on: RXF 393 renal
[10] = tested on: PC-3 prostate

Cc1cc(N(CCC#N)CCC#N)ccc1/C=C1/N=C(c2ccccc2)N(N)C1=O
TGI [1]: > 100 µM | TGI [2]: > 100 µM | TGI [3]: > 100 µM | TGI [4]: > 100 µM | TGI [5]: > 100 µM | TGI [6]: > 100 µM | TGI [7]: > 100 µM | TGI [8]: > 100 µM

CC1CN1c1c(C(=O)/C=C/c2ccccc2)c(-c2ccccc2)nn(C)c1=O (stereo unspecified)
TGI [1]: 31.8 µM | TGI [2]: 50.2 µM | TGI [3]: 81.7 µM | TGI [4]: 52.7 µM | TGI [5]: 46.8 µM | TGI [6]: 33.7 µM | TGI [7]: 39.8 µM | TGI [8]: 29.1 µM | TGI [9]: 41.4 µM

CNS(=O)(=O)NNS(=O)(=O)c1ccc(Cl)cc1
TGI [1]: > 100 µM | TGI [2]: > 100 µM | TGI [3]: > 100 µM | TGI [4]: > 100 µM | TGI [5]: > 100 µM | TGI [6]: > 100 µM | TGI [7]: > 100 µM | TGI [8]: > 100 µM | TGI [9]: > 100 µM

COc1ccc(-c2cc(=O)c3c(OC)c(OC)c(OC)c(OC)c3o2)cc1
TGI [1]: > 100 µM | TGI [2]: > 100 µM | TGI [3]: > 100 µM | TGI [4]: > 100 µM | TGI [5]: > 100 µM | TGI [6]: > 100 µM | TGI [7]: > 100 µM | TGI [8]: > 100 µM | TGI [9]: > 100 µM

COc1ccc(/C=N/NC(=O)Cn2c(-c3ccc(S(C)(=O)=O)cc3)nc3cc(Cl)ccc32)cc1
GI50 [1]: 2.39 µM | TGI [1]: > 50 µM | GI50 [2]: 1.53 µM | TGI [2]: > 50 µM | GI50 [3]: 4.14 µM | TGI [3]: > 50 µM | GI50 [4]: 2.11 µM | TGI [4]: > 50 µM | GI50 [5]: 1.47 µM | TGI [5]: > 50 µM | GI50 [10]: 0.674 µM | TGI [10]: > 50 µM | GI50 [6]: 2.13 µM | TGI [6]: > 50 µM | GI50 [7]: 1.21 µM | TGI [7]: > 50 µM | GI50 [8]: 3.45 µM | TGI [8]: > 50 µM

COC(=O)c1nc(-c2ccccc2)oc1S(=O)(=O)n1nc(C)cc1N
GI50 [1]: 16.7 µM | TGI [1]: 35.9 µM | GI50 [2]: 15.6 µM | TGI [2]: 34.3 µM | GI50 [4]: 3.08 µM | TGI [4]: 11.4 µM | GI50 [5]: 29.7 µM | TGI [5]: > 100 µM | GI50 [10]: 18.3 µM | TGI [10]: 33.5 µM | GI50 [6]: 1.71 µM | TGI [6]: 3.11 µM | GI50 [7]: 3.22 µM | TGI [7]: 11.2 µM | GI50 [8]: 8.59 µM | TGI [8]: 21.1 µM | GI50 [9]: 11.9 µM | TGI [9]: 24.7 µM

Cc1ccc(NC(=O)c2ccccc2C(=O)O)cc1C
TGI [1]: > 100 µM | TGI [2]: > 100 µM | TGI [3]: > 100 µM | TGI [4]: > 100 µM | TGI [5]: > 100 µM | TGI [10]: > 100 µM | TGI [6]: > 100 µM | TGI [7]: > 100 µM | TGI [9]: > 100 µM

CCCCCCN(N)C(=O)CC#N
TGI [1]: > 100 µM | TGI [3]: > 100 µM | TGI [4]: > 100 µM | TGI [6]: > 100 µM | TGI [7]: > 100 µM | TGI [8]: > 100 µM | TGI [9]: 94.8 µM

CCOC1=C2N=C(Cc3ccccc3F)N=C2C(=O)c2ccccc21
TGI [1]: > 100 µM | TGI [2]: > 100 µM | TGI [3]: > 100 µM | TGI [4]: > 100 µM | TGI [5]: > 100 µM | TGI [6]: > 100 µM | TGI [7]: > 100 µM | TGI [8]: > 100 µM | TGI [9]: > 100 µM

CN(C)CCC(/C=C/c1ccccc1)=N\Nc1ccc(Cl)cc1Cl
TGI [1]: 31.4 µM | TGI [2]: 29.4 µM | TGI [4]: 25.9 µM | TGI [5]: 30.2 µM | TGI [6]: 25.5 µM | TGI [7]: 27.9 µM | TGI [8]: 6.5 µM | TGI [9]: 21 µM

CN1COc2c(n(C)c(=O)[nH]c2=O)C1
TGI [1]: > 100 µM | TGI [2]: > 100 µM | TGI [3]: > 68.3 µM | TGI [4]: > 100 µM | TGI [5]: > 100 µM | TGI [6]: > 100 µM | TGI [7]: > 100 µM | TGI [8]: > 100 µM | TGI [9]: 97.9 µM

c1ccc(P(=Nc2ccccc2N=P(c2ccccc2)(c2ccccc2)c2ccccc2)(c2ccccc2)c2ccccc2)cc1
TGI [1]: 2.25 µM | TGI [2]: 16.9 µM | TGI [3]: 3.72 µM | TGI [5]: 10.7 µM | TGI [6]: 10.2 µM | TGI [7]: 14.3 µM | TGI [8]: 6.35 µM | TGI [9]: 9 µM

O=C(O)/C(Cl)=C(\Cl)C(=O)Nc1ccc(Cl)c(Cl)c1Cl
TGI [1]: 33.2 µM | TGI [2]: 30.2 µM | TGI [3]: 32 µM | TGI [4]: 59.7 µM | TGI [5]: 33 µM | TGI [6]: 32 µM | TGI [7]: 35.3 µM | TGI [8]: 30 µM

COc1cc(-c2cc(-c3cc([N+](=O)[O-])c(/C=N/NC(=O)c4ccncc4)o3)ccc2OC)ccc1C
TGI [1]: > 100 µM | TGI [2]: > 100 µM | TGI [3]: > 100 µM | TGI [5]: > 100 µM | TGI [6]: > 100 µM | TGI [7]: > 100 µM | TGI [9]: > 100 µM

COc1ccc(C(Cl)=C(c2ccc(OCCN(C)C)cc2)c2ccc(OCCN(C)C)cc2)cc1
TGI [1]: 3.98 µM | TGI [2]: 7.43 µM | TGI [3]: 16.3 µM | TGI [4]: 6.04 µM | TGI [5]: 3.24 µM | TGI [6]: 4.72 µM | TGI [7]: 2.75 µM | TGI [8]: 3.31 µM | TGI [9]: 2.65 µM

CC1(C)C2CCC13CS(=O)(=O)N1O[C@]13C(=O)O2 (stereo partly specified)
TGI [1]: > 100 µM | TGI [2]: > 100 µM | TGI [4]: > 100 µM | TGI [5]: > 100 µM | TGI [6]: > 100 µM | TGI [7]: > 100 µM | TGI [8]: > 100 µM

CN1CCN(Cc2ccc(NC(=O)c3[nH]ncc3Nc3ncnc4sc5c(c34)CCCC5)cc2)CC1
GI50 [2]: 0.282 µM | TGI [2]: 1.48 µM | GI50 [4]: 0.108 µM | TGI [4]: 0.503 µM | GI50 [5]: 0.373 µM | TGI [5]: 1.78 µM | GI50 [10]: 0.198 µM | TGI [10]: 1.33 µM | GI50 [6]: 0.19 µM | TGI [6]: 0.969 µM | GI50 [7]: 0.194 µM | TGI [7]: 1.05 µM | GI50 [8]: 0.356 µM | TGI [8]: 1.75 µM | GI50 [9]: 0.229 µM | TGI [9]: 0.949 µM

Cc1nc2ccccc2c(/C=C/c2ccc(Br)cc2)c1C(=O)/C=C/c1ccccc1
GI50 [1]: 1.66 µM | TGI [1]: 3.81 µM | GI50 [2]: 1.62 µM | TGI [2]: 3.05 µM | GI50 [3]: 1.26 µM | TGI [3]: 2.62 µM | GI50 [4]: 0.696 µM | TGI [4]: 5.06 µM | GI50 [6]: 1.64 µM | TGI [6]: 3.02 µM | GI50 [7]: 1.54 µM | TGI [7]: 4.45 µM | GI50 [8]: 1.21 µM | TGI [8]: 2.44 µM | GI50 [9]: 1.64 µM | TGI [9]: 3.07 µM

CSC(=S)N/N=C(\C)c1cccc(C)n1
TGI [1]: 13.9 µM | TGI [2]: > 100 µM | TGI [3]: 23.6 µM | TGI [5]: 24.8 µM | TGI [10]: 36.3 µM | TGI [6]: 3.48 µM | TGI [7]: > 56.9 µM | TGI [8]: 13.2 µM | TGI [9]: 13.8 µM

O=c1[nH]cnc2c(C3NC(CO)C(O)C3O)c[nH]c12 (stereo unspecified)
GI50 [1]: > 100 µM | TGI [1]: > 100 µM | GI50 [2]: > 100 µM | TGI [2]: > 100 µM | GI50 [3]: > 100 µM | TGI [3]: > 100 µM | GI50 [5]: > 100 µM | TGI [5]: > 100 µM | GI50 [10]: > 100 µM | TGI [10]: > 100 µM | GI50 [6]: > 100 µM | TGI [6]: > 100 µM | GI50 [7]: > 100 µM | TGI [7]: > 100 µM | GI50 [8]: > 100 µM | TGI [8]: > 100 µM | GI50 [9]: > 100 µM | TGI [9]: > 100 µM
